Laboratory results from US10010581B2, “Syndecan peptides and polypeptides and uses thereof” (Wisconsin Alumni Research Foundation, priority 2012, dated 2018).

Key:
[1] = tested on: HaCat keratinocytes or MCF10A mammary epithelial cells; experiment: competition of LPA-induced haptotactic migration by GST fusion proteins or synthetic peptides (FIG. 10 summary); format: cell-based, human; conditions: 0.1 to 30 μM, 3 μM LPA
Protocol: FIGS. 10A-C. Schematic summary of experiments using either recombinant GST fusion proteins or synthetic peptides to disrupt Sdc1-dependent coupling of HER2 to α6β4 integrin necessary for LPA-induced haptotactic migration. GST-fusion proteins or synthetic peptides were added at concentrations ranging from 0.1 to 30 μM to the culture medium of human HaCat keratinocytes or MCF10A mammary epithelial cells in the presence or absence of 3 μM LPA. The ability of the constructs to inhibit the migration of the cells to close a scratch wound in confluent monolayers was determined and expressed as the concentration of inhibitor necessary to cause 50% inhibition of cell migration. (FIG. 10A) Competition using recombinant GST-fusion proteins. GST-Sdc1 fusion proteins bearing truncations or mutations were assessed for their competitive activity. […] (FIG. 10B) Competition with synthetic peptides. Peptides were purchased from commercial sources for testing as a putative synstatin inhibitory peptide (SSTNHER2). […] (FIG. 10C) Schematic representation of the active site in Sdc1. The active site is shown as a juxtamembrane site in the ectodomain of Sdc1. TM is the transmembrane domain and CYTO is the cytoplasmic domain. The sequence of a peptide derived from this site (SSTNHER2) is shown along with its homology across other mammalian Sdc1 species. The human STTNHER2 sequence is SEQ ID NO:23; the homology for STTNHER2 across mammals is SEQ ID NO:24.
HaCat or MCF10A cells were grown to confluence on 48 well-plates were starved for 6 hr by serum deprivation followed by introduction of a scratch wound in the monolayer using 200 μl pipette tip. Cells were cultured an additional 18 hr in DMEM containing mAb 3E1 (10 μg/ml) and goat anti-mouse IgG (50 μg/ml), EGF (10 ng/ml) or HGF (20 ng/ml) to cause cell migration in the presence or absence of inhibitors. Images were acquired using a PlanApo 20 (0.75 numerical aperture) objective and a Photometrics CoolSnap ES camera on a Nikon Eclipse TE2000U microscopy system and wound closure quantified.

[2] = tested on: HaCat human keratinocytes; experiment: total cell number, CellTiterGLO assay; format: cell-based; conditions: single peptide, concentrations as high as 30 μM, 4 or 7 days
Protocol: FIGS. 11A-F. SSTN treatment of normal (nontransformed) epithelial cells versus carcinoma (transformed) cells. Cells are plated for one day, then treated with either 3-30 μM […] (SSTN-I), 3-30 μM […] (SSTN-E), 3-30 μM SSTNHER2 (SSTN-H) or combinations of the three peptides, each at 10 μM to test their additive effect. […] The treatment times are chosen to reflect only modest effects of the peptides used singly, so that the more pronounced effect of peptides used in combination can still be observed. Treatment for longer times leads to significant cell death observed even with single peptides alone. (FIG. 11A) HaCat human keratinocytes, an example of a normal stratified epithelium, (FIG. 11B) UM-SCC47 cells, a squamous cell carcinoma derived from the tongue of a patient (a stratrified epithelium), (FIG. 11C) SCC25 cells, another squamous cell carcinoma from the tongue of a patient (FIG. 11D) MCF10A cells, a normal human breast epithelium, (FIG. 11E) MDA-MB-468 cells, a triple-negative (TN) breast carcinoma, and (FIG. 11F) SKBr3 cells, a HER2+ human breast carcinoma. Note that the “triple-negative” designation of the MDA-MB-468 carcinoma means the cells are negative for progesterone receptor, estrogen receptor and the HER2 kinase. Thus, they would not be expected to rely on HER2. Indeed, these cells are not affected by SSTNHER2, either alone or when combined with the other peptides. […]

[3] = tested on: HaCat keratinocytes; experiment: scratch wound haptotaxis induced by LPA and clustering of α6β4 integrin; format: cell-based, human; conditions: LPA + α6β4 clustered with mAb 3E1 and secondary antibody, AG825 10 μM, Iressa 1 μM
Source text: FIG. 6A-D. Sdc1 is required for HER2/α6β4-dependent HaCat keratinocyte migration. (FIG. 6A) HaCat keratinocytes deposit laminin 332 (LN332) and migrate upon this using α3β1 and α6β4 integrins to close a scratch wound in the monolayer when stimulated to undergo chemotaxis in response to EGF. Alternatively, migration is induced by clustering the integrin (using mAb 3E1 against the integrin+a secondary antibody to cluster the first antibody and thus the entire complex) in the presence of LPA. This mimics the clustering that occurs when the cells engage LN332 and is referred to as haptotaxis. […] (FIG. 6B) Haptotaxis, stimulated by LPA and clustering of α6β4 integrin as described in FIG. 6A, is blocked by antibody directed against the α3β1 integrin or by BM165 which targets the binding site for α3β1 in LN332. […] (FIG. 6C) The potential roles of Sdc1 or Sdc4 in haptotaxis is tested by silencing their expression, together with attempting to rescue with either wild-type mouse Sdc1 or Sdc4, or mouse mutants unable to engage the β4 cytoplasmic domain (mSdc1ΔC2 or mSdc4ΔC2). Haptotaxis is blocked by silencing endogenous Sdc1, and this cannot be rescued by Sdc1ΔC2 that fails to engage the α6β4 integrin. Silencing Sdc4 also disrupts migration, but this traces to its role in activity of the α3β1 integrin and not a role in engaging the α6β4 integrin, as it can be rescued by mSdc4ΔC2 that fails to associate with the α6β4 integrin. (FIG. 6D) Immunoprecipitation of either native mSdc4 or mSdc4[…]C2 confirms that the mSdc4ΔC2 mutant no longer associates with the α6β4 integrin, but does with the α3β1 integrin. […]
HaCat or MCF10A cells were grown to confluence on 48 well-plates were starved for 6 hr by serum deprivation followed by introduction of a scratch wound in the monolayer using 200 μl pipette tip. […] Images were acquired using a PlanApo 20 (0.75 numerical aperture) objective and a Photometrics CoolSnap ES camera on a Nikon Eclipse TE2000U microscopy system and wound closure quantified. […]

SSTNHER2: synthetic peptide of human Sdc1 ectodomain amino acids 210-240 (SEQ ID NO:3), inhibits Sdc1 coupling of HER2 to α6β4 integrin (DFTFETSGENTAVVAVEPDRRNQSPVDQGAT; listed as Homo sapiens)
competitive (inhibitory) activity on haptotactic migration [1]: fully active | growth or survival [2]: no effect | haptotaxis (migration to close a scratch wound) [3]: blocks haptotaxis
